{
  "source": "patent US20240262812A1",
  "about": "“N-SUBSTITUTED PHENYLSULFONAMIDE COMPOUND AND USE THEREOF” (Shanghai Leado Pharmatech Co., Ltd., priority 2021, published 2024)",
  "key": {"[1]": {"target": "T1, mTRPA1 (Mus musculus, UniProt Q8BLA8)", "T1 construct": "expressed in transfected cells", "T1 sequence (Q8BLA8 whole entry)": "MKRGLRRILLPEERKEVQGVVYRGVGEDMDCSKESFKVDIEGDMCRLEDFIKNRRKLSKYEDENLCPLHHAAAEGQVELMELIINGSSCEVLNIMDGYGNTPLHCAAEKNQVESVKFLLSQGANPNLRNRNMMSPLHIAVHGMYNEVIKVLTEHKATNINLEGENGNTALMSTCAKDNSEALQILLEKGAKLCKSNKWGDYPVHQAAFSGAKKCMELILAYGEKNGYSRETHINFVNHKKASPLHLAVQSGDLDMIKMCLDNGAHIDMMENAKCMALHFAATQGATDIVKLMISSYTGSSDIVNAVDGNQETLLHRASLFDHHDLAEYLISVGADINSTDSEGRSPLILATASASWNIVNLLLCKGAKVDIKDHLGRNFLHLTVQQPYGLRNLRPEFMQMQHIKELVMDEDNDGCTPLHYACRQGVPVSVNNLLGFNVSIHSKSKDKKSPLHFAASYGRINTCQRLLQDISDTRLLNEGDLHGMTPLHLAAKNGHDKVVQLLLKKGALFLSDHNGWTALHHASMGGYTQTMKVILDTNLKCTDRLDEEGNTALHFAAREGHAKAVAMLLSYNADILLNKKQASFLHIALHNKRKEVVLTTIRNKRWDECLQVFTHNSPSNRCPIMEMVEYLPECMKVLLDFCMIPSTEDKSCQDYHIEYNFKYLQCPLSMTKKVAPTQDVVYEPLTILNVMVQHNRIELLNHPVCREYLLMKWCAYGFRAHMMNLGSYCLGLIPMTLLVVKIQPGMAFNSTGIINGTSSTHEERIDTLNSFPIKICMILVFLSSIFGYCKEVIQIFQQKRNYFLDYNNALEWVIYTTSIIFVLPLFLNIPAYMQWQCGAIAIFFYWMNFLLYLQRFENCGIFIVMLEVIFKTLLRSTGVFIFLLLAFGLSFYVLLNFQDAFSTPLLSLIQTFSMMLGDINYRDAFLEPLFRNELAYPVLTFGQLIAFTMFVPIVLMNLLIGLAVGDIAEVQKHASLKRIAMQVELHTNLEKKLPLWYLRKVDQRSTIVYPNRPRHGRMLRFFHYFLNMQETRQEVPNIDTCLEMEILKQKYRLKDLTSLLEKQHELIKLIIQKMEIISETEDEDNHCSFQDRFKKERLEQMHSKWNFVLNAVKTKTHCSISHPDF", "assay": "IonWorks Barracuda (IWB) automated patch clamp, TRPA1 inhibitory activity", "type": "cell-based", "conditions": "HEK293 cells stably expressing mTRPA1, current induced by AITC, amplitude at +100 mV; read-out: IC50 (inhibition activity on TRPA1)", "in_short": "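HEK293 cells stably expressing mouse TRPA1, perforated-patch whole-cell recording (amphotericin B) on IonWorks Barracuda; holding 0 mV, −100 to +100 mV ramp over 300 ms every 10 s. Current evoked by 300 µM AITC, leak-subtracted, amplitude taken at +100 mV; IC50 from fitted dose-effect curves, HC030031 as plate reference.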"}, "[2]": {"target": "T2, chemokine receptor CCR9 (Homo sapiens, UniProt P51686)", "T2 construct": "expressed in transfected cells", "T2 sequence (P51686 1-369)": "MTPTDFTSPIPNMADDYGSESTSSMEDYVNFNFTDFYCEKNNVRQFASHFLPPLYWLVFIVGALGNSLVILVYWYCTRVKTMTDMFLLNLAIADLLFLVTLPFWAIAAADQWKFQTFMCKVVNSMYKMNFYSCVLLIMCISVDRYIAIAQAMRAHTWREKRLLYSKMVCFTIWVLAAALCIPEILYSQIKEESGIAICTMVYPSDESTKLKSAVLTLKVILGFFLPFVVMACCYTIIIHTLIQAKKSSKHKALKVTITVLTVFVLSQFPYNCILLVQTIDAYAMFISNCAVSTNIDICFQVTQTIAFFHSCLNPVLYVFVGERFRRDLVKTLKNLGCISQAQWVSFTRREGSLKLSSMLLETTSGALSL", "assay": "CCR9 antagonistic activity, calcium flow (Fluo-4, FlexStation), CCL25 agonist", "type": "cell-based", "conditions": "antagonistic mode, CCL25 150 nM; for inhibition at 100 µM: read-out: Inhibition rate (%) (100 μM)", "source_text": "2.1 Main reagents: DMEM culture medium (GIBCO); dimethyl sulfoxide (Sigma); FLUO-4, AM (Invitrogen) 2.2 Main instrument: Flexstation-3 (Molecular Devices) The test concentration gradient of the compound and replicates were set according to the requirement of testing ICSO. All test substances with 8 concentrations were set, with 3 replicates for each concentration. By establishing a cell line that cotransformed the receptor and G16, the receptor being activated can induce the activation of Gα16 protein, thereby activating phospholipase C (PLC) to produce IP3 and DAG. IP3 can bind to the IP3 receptor on the intracellular endoplasmic reticulum and mitochondria, leading to the release of intracellular calcium. Therefore, measuring changes in intracellular calcium can serve as a method for detecting the activation status of target receptor. Fluo-4/AM is a calcium fluorescent probe indicator used to measure calcium ion, as a non-polar lipophilic compound, under the action of cell lipase after entering cells, the AM group dissociates and releases Fluo-4; since Fluo-4 is a polar molecule, it is not easy to pass through lipid bilayers, allowing it to remain in the cell for a long time. Ultimately, the level of G protein activation can be reflected by measuring the excited fluorescence intensity. […] Cells stably expressing the target receptor/Ga16 were planted on a 96 well plate and cultured overnight. 2. The culture solution was removed from the well planted cells, then 40 μL/well of freshly prepared dye was added. The mixture was incubated at a constant temperature in a 37° C. incubator for 40 minutes. 3. The drug to be tested was diluted with calcium buffer and mixed well. 4. The dye was absorbed and discarded. After washed once with freshly prepared calcium buffer, 50 μL of calcium buffer that dissolved the drug to be tested was added for replacement. 5. The FlexStation II instrument was used for detection. Starting from the 15th second, […] dissolved with known agonist was automatically added by the instrument, and finally the fluorescence value at 525 nm was readed. The following formula was used to calculate the cell response rate (% Response) for each sample under each concentration. […] IC50 value was calculated using GraphPad Prism."}},
  "data": [
    {"smiles": "CN(c1ccc(CN)cc1-c1ccco1)S(=O)(=O)c1ccsc1", "note": "[IF, N-(4-(aminomethyl)-2-(furan-2-yl)phenyl)-N-methylthiophene-3-sulfonamide]", "values": [
      {"measurement": "IC50", "setting": "[1]", "value": "< 1", "unit": "µM"},
      {"measurement": "inhibition at 100 µM", "setting": "[2]", "value": 22, "unit": "%"},
      {"measurement": "IC50", "setting": "[2]", "value": "> 100", "unit": "µM"}
    ]},
    {"smiles": "O=S(=O)(Nc1ccc(CN2CC(F)C2)cc1-c1ccco1)c1ccsc1", "note": "[IJ-2, N-(4-((3-fluoroazetidin-1-yl)methyl)-2-(furan-2-yl)phenyl)thiophene-3-sulfonamide]", "values": [
      {"measurement": "IC50", "setting": "[1]", "value": "1 to 5", "unit": "µM"},
      {"measurement": "inhibition at 100 µM", "setting": "[2]", "value": 30, "unit": "%"},
      {"measurement": "IC50", "setting": "[2]", "value": "> 100", "unit": "µM"}
    ]},
    {"smiles": "CNCc1ccc(-n2cccc2)c(NS(=O)(=O)c2ccccc2)c1", "note": "[IQ-1, N-(5-((methylamino)methyl)-2-(1H-pyrrole-1-yl)phenyl)benzenesulfonamide]", "values": [
      {"measurement": "IC50", "setting": "[1]", "value": "1 to 5", "unit": "µM"},
      {"measurement": "inhibition at 100 µM", "setting": "[2]", "value": 22, "unit": "%"},
      {"measurement": "IC50", "setting": "[2]", "value": "> 100", "unit": "µM"}
    ]},
    {"smiles": "CNCc1ccc(-n2cccn2)c(NS(=O)(=O)c2ccccc2)c1", "note": "[IQ-2, N-(5-((methylamino)methyl)-2-(1H-pyrazol-1-yl)phenyl)benzenesulfonamide]", "values": [
      {"measurement": "IC50", "setting": "[1]", "value": "1 to 5", "unit": "µM"},
      {"measurement": "inhibition at 100 µM", "setting": "[2]", "value": 17, "unit": "%"},
      {"measurement": "IC50", "setting": "[2]", "value": "> 100", "unit": "µM"}
    ]},
    {"smiles": "NCCc1ccc(NS(=O)(=O)c2ccsc2)c(-c2ccco2)c1", "note": "[IR, N-(4-(2-aminoethyl)-2-(furan-2-yl)phenyl)thiophene-3-sulfonamide]", "values": [
      {"measurement": "IC50", "setting": "[1]", "value": "1 to 5", "unit": "µM"},
      {"measurement": "inhibition at 100 µM", "setting": "[2]", "value": 25, "unit": "%"},
      {"measurement": "IC50", "setting": "[2]", "value": "> 100", "unit": "µM"}
    ]}
  ]
}
